In patent US4259336A, “4-Hydroxy-2H-[1]-benzothieno [2,3-e]-1,2-thiazine-3-carboxamide-1,1-dioxides and salts thereof” (Boehringer Ingelheim GmbH, priority 1978, dated 1981):
Like-named read-outs stand apart in the source and are kept apart here.

How the values were obtained:
[1] = biological target: T1, prostaglandin synthetases (Bos taurus, UniProt O62664); assay: Anti-inflammatory activity: inhibition of prostaglandin biosynthesis (prostaglandin synthetases, microsomal extract from bovine seminal vesicles); type: biochemical; conditions: 14C-arachidonic acid substrate, read-out: EC50 in mol (50% decrease in the amount of prostaglandins)
T1 construct: isolated as a microsomal extract from bovine seminal vesicles; from tissue; host or cells: bovine seminal vesicles (microsomal extract)
T1 sequence (O62664 25-600): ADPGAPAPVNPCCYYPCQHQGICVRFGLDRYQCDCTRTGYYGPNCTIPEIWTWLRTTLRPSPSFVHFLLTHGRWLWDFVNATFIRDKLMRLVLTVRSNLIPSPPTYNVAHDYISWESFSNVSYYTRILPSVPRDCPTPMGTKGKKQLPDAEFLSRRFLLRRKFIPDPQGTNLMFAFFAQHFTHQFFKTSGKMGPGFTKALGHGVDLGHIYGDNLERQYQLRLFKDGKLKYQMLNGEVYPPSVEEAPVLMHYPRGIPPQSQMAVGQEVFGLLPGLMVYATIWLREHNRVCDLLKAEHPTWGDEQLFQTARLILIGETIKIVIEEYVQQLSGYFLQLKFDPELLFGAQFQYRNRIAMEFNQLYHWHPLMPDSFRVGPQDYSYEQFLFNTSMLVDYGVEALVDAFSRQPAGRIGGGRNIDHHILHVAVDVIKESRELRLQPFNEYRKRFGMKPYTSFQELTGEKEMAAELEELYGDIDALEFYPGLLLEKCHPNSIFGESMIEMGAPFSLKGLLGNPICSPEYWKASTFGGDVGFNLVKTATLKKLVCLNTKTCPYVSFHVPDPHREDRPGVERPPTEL
Experimental: Therefore, the anti-inflammatory activity was determined as the activity against the prostaglandin synthetases:
^14 C-arachidonic acid served as the substrate. The prostaglandins biosynthetisized therefrom were separated chromatographically from the ^14 C-arachidonic acid, and the remaining substrate and product were measured radiochemically.

[2] = system: rats; assay: Acute toxicity, peroral, rats; type: in vivo; conditions: 100 mg/kg p.o., observed 24 hours
Experimental: (§1) The acute toxicity was determined in rats of both sexes (1:1) with a body weight of 120-150 gm. The test compound was perorally administered as a suspension in 1% methyl-cellulose (1 ml/100gm animal) by means of an esophageal sound.

[3] = Acute toxicity, peroral, rats; type: in vivo; conditions: rat, in vivo, po, suspension in 1% methyl-cellulose, observed 24 hours
Experimental: as §1

[4] = system: thrombocyte aggregation in platelet-rich plasma of healthy test persons (collagen); assay: Inhibition of blood-platelet aggregation (Born test), collagen-induced, platelet-rich plasma; type: cell-based, healthy test persons (human); conditions: Homo sapiens, read-out: Percentage change in light permeability of plasma (Born test); for inhibition at 1 µM: 10^-6 mol/liter; for inhibition at 20 µM: 2.10^-5 mol/liter; for inhibition at 2 µM: 2.10^-6 mol/liter; for inhibition at 0.2 µM: 2.10^-7 mol/liter
Experimental: The decrease in the optical density of platelet suspensions was measured photometrically and recorded after the addition of collagen. From the angle of inclination of the density curve the velocity of aggregation was estimated. The optical density was taken as the point on the curve where the most light was transmitted. The doses of collagen were chosen so as to be sufficient to produce irreversible aggregation. […] Commercial collagen sold by Hormonchemie, Munich, Germany, was used.

[5] = 10^-5 mol/liter, collagen, =% decrease in aggregation vs control
[6] = collagen, =% decrease in aggregation vs control

Row | Structure (SMILES) | EC50 ([1]; DMSO 2%) [nM] | animals died [2] | LD50 at 24 h [3] [mg/kg] | inhibition at 20 µM [4, 6] [%] | inhibition at 2 µM [4, 6] [%] | further results
1 | CN1C(C(=O)Nc2nccs2)=C(O)c2sc3ccccc3c2S1(=O)=O [A, 4-Hydroxy-2-methyl-N-(2-thiazolyl)-2H-[1] benzothieno-[2,3-e]-1,2-thiazine-3-carboxamide-1,1-dioxide] | 39 | 0 out of 10 | > 100 |  |  | inhibition at 10 µM [4, 5]: 94%; inhibition at 1 µM [4, 6]: 73%; inhibition at 0.1 µM ([4]; 10^-7 mol/liter, collagen, =% decrease in aggregation vs control): 14%
2 | Cc1cccc(NC(=O)C2=C(O)c3sc4ccccc4c3S(=O)(=O)N2C)n1 [B, 4-Hydroxy-2-methyl-N-(6-methyl-2-pyridyl)-2H-[1] benzothieno [2,3-e]-1,2-thiazine-3-carboxamide-1,1-dioxide] |  |  |  |  |  | inhibition at 4 µM ([4]; 4.10^-6 mol/liter, collagen, =% decrease in aggregation vs control): 100%; inhibition at 0.4 µM ([4]; 4.10^-7 mol/liter, collagen, =% decrease in aggregation vs control): 71%
3 | Cc1csc(NC(=O)C2=C(O)c3sc4ccccc4c3S(=O)(=O)N2C)n1 [C, 4-Hydroxy-2-methyl-N-(4-methyl-2-thiazolyl)-2H-[1] benzothieno [2,3-e]-1,2-thiazine-3-carboxamide-1,1-dioxide] | 21 | 0 out of 10 | > 100 |  |  | inhibition at 10 µM [4, 5]: 93%; inhibition at 1 µM [4, 6]: 57%
4 | Cc1ccnc(NC(=O)C2=C(O)c3sc4ccccc4c3S(=O)(=O)N2C)c1 [D, 4-Hydroxy-2-methyl-N-(4-methyl-2-pyridyl)-2H-[1]-benzothieno-[2,3-e]-1,2-thiazine-3-carboxamide-1,1-dioxide] |  |  |  | 88 | 60 | inhibition at 0.2 µM [4, 6]: 19%
5 | Cc1ccnc(NC(=O)C2=C(O)c3sc4cc(C)ccc4c3S(=O)(=O)N2C)c1 [E, 2,7-Dimethyl-4-hydroxy-N-(4-methyl-2-pyridyl)-2H-[1]-benzothieno [2,3-e]-1,2-thiazine-3-carboxamide-1,1-dioxide] |  |  |  | 72 | 34 | 
6 | Cc1ccc2c3c(sc2c1)C(O)=C(C(=O)Nc1cccc(C)n1)N(C)S3(=O)=O [F, 2,7-Dimethyl-4-hydroxy-N-(6-methyl-2-pyridyl)-2H-[1]-benzothieno [2,3-e]-1,2-thiazine-3-carboxamide-1,1-dioxide] |  |  |  | 90 | 77 | inhibition at 0.2 µM [4, 6]: 30%
7 | Cc1ccnc(NC(=O)C2=C(O)c3sc4cc(Cl)ccc4c3S(=O)(=O)N2C)c1 [G, 7-Chloro-4-hydroxy-2-methyl-N-(4-methyl-2-pyridyl)-2H-[1]-benzothieno [2,3-e]-1,2-thiazine-3-carboxamide-1,1-dioxide] |  |  |  | 66 | 33 | 
8 | Cc1cccc(NC(=O)C2=C(O)c3sc4cc(Cl)ccc4c3S(=O)(=O)N2C)n1 [H, 7-Chloro-4-hydroxy-2-methyl-N-(6-methyl-2-pyridyl)-2H-[1] benzothieno [2,3-e]-1,2-thiazine-3-carboxamide-1,1-dioxide] |  |  |  | 89 | 88 | inhibition at 0.2 µM [4, 6]: 33%
9 | CN1C(C(=O)Nc2nc3ccccc3s2)=C(O)c2sc3ccccc3c2S1(=O)=O [I, N-(2-Benzothiazolyl)-4-hydroxy-2-methyl-2H-[1] benzothieno [2,3-e]-1,2-thiazine-3-carboxamide-1,1-dioxide] | 22 | 0 out of 10 | > 100 |  |  | 
10 | CN1C(C(=O)Nc2ncc(Cl)s2)=C(O)c2sc3ccccc3c2S1(=O)=O [J, N-(5-Chloro-2-thiazolyl)-4-hydroxy-2-methyl-2H-[1] benzothieno [2,3-e]-1,2-thiazine-3-carboxamide-1,1-dioxide] | 47 | 0 out of 10 | > 100 |  |  | 
11 | Cc1nc(NC(=O)C2=C(O)c3sc4ccccc4c3S(=O)(=O)N2C)sc1C [K, N-(4,5-Dimethyl-2-thiazolyl)-4-hydroxy-2-methyl-2H-[1]-benzothieno [2,3-e]-1,2-thiazine-3-carboxamide-1,1-dioxide] |  | 0 out of 10 | > 100 |  |  | EC50 ([1]; DMSO 10%): 250 nM
12 | CC(=O)Oc1ccccc1C(=O)O [V, Acetylsalicyclic acid, reference compound] |  |  |  |  |  | inhibition at 10 µM [4]: 13%; inhibition at 30 µM [4]: 45%
13 | CN1C(C(=O)Nc2nccs2)=C(O)c2ccccc2S1(=O)=O [W, Sudoxicam, reference compound] | 7000 |  |  |  |  | 
